Assay [1] in a line: Blocker Index (BI), expert graders, isovaleric acid malodorous swatch. On the set-up: key: Blocker Index, 0–3 scale anchored by reference swatches (0 = clean swatch). From the text:
Blocker materials suitable for use in cleaning and/or treatment compositions of the present invention are chosen for their ability to decrease malodor, while not interfering with perception of a fragrance. Material selection is done by assigning two indices to a test sample material from two reference scales in order to rank odor strengths. The two reference scales are the Fragrance Fidelity Index (FFI) scale and the Blocker Index (BI) scale. The FFI ranks the ability of the test sample material to impart a perceivable odor which could cause interference when combined with another fragrance and the BI ranks the ability of the test sample material to reduce malodor perception. The two methods for assigning the indices to a test sample on the FFI and the BI reference scales are given below.
The first step in the method for assigning a BI to a test sample material on the BI reference scale is to create the BI reference swatches. […] Fabric swatches for this test are white knit polycotton (4 inch×4 inch) swatches from EMC ordered as PC 50/50. The supplier is instructed to strip the swatches first, stripping involves washing twice with a fragrance-free detergent and rinsing three times.
The BI scale contains one clean swatch with no malodor applied. […] These solutions are pipetted to the middle of the swatches. […] After drying for 30 minutes in a vented hood, the swatches are wrapped in aluminum foil to prevent odor contamination to the treated swatch. A clean untreated swatch is also included as the lowest anchor point of reference for malodor strength on the BI scale. The BI reference scale swatches should be used within 0.5 to 12 hours and discarded after 12 hours. The swatches are used as scale anchor points when graders evaluate a test sample(s) and are assigned a Blocker Index (BI) as show in Table 12.
The perfumer/expert grader is asked to rank order swatches according to a scale between 0 and 3.
The reference swatches represent the 0, 1, 2, and 3 BIs on the BI reference scale, Table 12. The expert grader should familiarizes him/herself with the strength of the odor on the BI reference swatches by sniffing each one starting at 0 (the lowest odor strength) and ending at 3 (the highest odor strength). This should be done prior to evaluating the swatch treated with the test material.
To evaluate the BI, the test material is applied to a malodorous swatch to determine how well the test material blocks the malodor. […] After drying the malodorous swatch a known concentration of test material solution, between 1 ppm and 100 ppm is pipetted onto the malodorous swatch. […] It is sometimes necessary to evaluate several levels of the test material between about 1 and about 100 ppm to determine the BI.
At least two perfumers/expert graders are used to assign the BI to the test sample. […] The test sample swatch is assigned a BI at or between numbers on the BI in table.

Assay [2] is described as follows: Fragrance Fidelity Index (FFI), expert graders, treated fabric swatch against ethyl vanillin reference scale. An excerpt:
Blocker materials suitable for use in cleaning and/or treatment compositions of the present invention are chosen for their ability to decrease malodor, while not interfering with perception of a fragrance. Material selection is done by assigning two indices to a test sample material from two reference scales in order to rank odor strengths. The two reference scales are the Fragrance Fidelity Index (FFI) scale and the Blocker Index (BI) scale. The FFI ranks the ability of the test sample material to impart a perceivable odor which could cause interference when combined with another fragrance and the BI ranks the ability of the test sample material to reduce malodor perception. The two methods for assigning the indices to a test sample on the FFI and the BI reference scales are given below. The first step in the method for assigning an FFI to the test samples on the FFI reference scale is to create the FFI reference swatches. […] Fabric swatches for this test are white knit polycotton (4 inch×4 inch) swatches from EMC ordered as PC 50/50. The supplier is instructed to strip the swatches first, stripping involves washing twice with a fragrance-free detergent and rinsing three times. […] This will create a sensory scale of three swatches with three different odor levels based on the concentration of the solution pipetted onto the swatch. […] A clean untreated swatch is also included as the lowest anchor point of reference for odor strength on the FFI scale. […] The swatches are used as scale anchor points when graders evaluate a test sample(s) and are assigned a Fragrance Fidelity Index (FFI) as show in Table 7. […] This should be done prior to evaluating the test sample material treated swatch. […] At least two perfumers/expert graders are used to assign an FFI grade to a test sample.

Where [3] appears, read: test material at 10 ppm on isovaleric acid malodorous swatch.
Where [4] appears, read: test material at 50 ppm on isovaleric acid malodorous swatch.

For the compound `CC1(C)CCc2ccc(CCC=O)cc21`, the BI in assay [1] (setting [3]) is 1.5; in assay [1] (setting [4]) it was 2.7.
In the same order, the values of `CC1CCC2(C(C)C)CC(C)OC2C1` (centres unmarked) are 2.0 and 2.2.
Turning to `O=C1CCC2CCCCC2O1` (centres unmarked) [3,4,4a,5,6,7,8,8a-octahydrochromen-2-one], the BI in assay [1] (Conc 10 ppm) and in assay [1] (Conc 50 ppm) was 2.0 in each case. Also, the FFI in assay [2] (Conc 10 ppm) and in assay [2] (Conc 50 ppm) was 0 each time.
Consider `CC(C)(C)C1CCCCC1` [4-tert-butyl cyclohexane], for which the BI in assay [1] (Conc 10 ppm) and in assay [1] (Conc 50 ppm) was 2.0 in each case. In addition, the FFI in assay [2] (Conc 10 ppm) was determined as 0; in assay [2] (Conc 50 ppm), 0.3.
For the compound `CCC(=O)OC1CC2C3C=CCC3C1C2(C)C` (centres unmarked) [8,8-dimethyl-3a,4,5,6,7,7a-hexahydro-1H-4,7-methanoinden-6-yl propionate], the results for the BI in assay [1] (setting [3]) and in assay [1] (setting [4]) were 1.5 and 2.2, respectively.
For the compound `CCCCCCCCCCCCCCCC(=O)OC` [Material 109], the BI in assay [1] (Conc 10 ppm) came to 2.0.
Consider `CCCCCCCCCCCCO` [Material 174], for which the BI in assay [1] (Conc 50 ppm) came to 2.3. Also, in assay [2] (Conc 50 ppm), the FFI is listed as 0.5.
Consider `CC(=O)OCCCCCCC(C)C` [Material 204], for which the BI in assay [1] (Conc 10 ppm) is listed as 2.0; in assay [1] (Conc 50 ppm) it was 2.7. Moreover, the FFI in assay [2] (Conc 10 ppm) and in assay [2] (Conc 50 ppm) was 0 throughout.
For the compound `CC1(C)CCc2ccc(CCC=O)cc21` [Material 261], the values for the BI in assay [1] (Conc 10 ppm) and in assay [1] (Conc 50 ppm) were 1.8 and 1.3, respectively. For the same compound, the FFI in assay [2] (Conc 10 ppm) came out at 0; in assay [2] (Conc 50 ppm), 1.3.
Consider `CC(=O)OC1CC2CC1C1CC=CC21` (centres unmarked) [Material 281], for which the BI in assay [1] (Conc 10 ppm) and in assay [1] (Conc 50 ppm) was 2.0 throughout. In addition, the figures for the FFI in assay [2] (Conc 10 ppm) and in assay [2] (Conc 50 ppm) were 0 and 0.5, respectively.
`CCCCCCCCCCCC(=O)OCC` [Material 391] yielded a BI in assay [1] (Conc 50 ppm) of 2.2. This compound had an FFI in assay [2] (Conc 50 ppm) of 0.3.
In the same order, the values of `C=CC(C)=CCC=C(C)C` [Material 524] are 2.8 and 0.
Consider `CCC(O)COC1CCCCC1C(C)(C)C` (centres unmarked) [Material 677], for which the BI amounted to 2.3 in assay [1] (Conc 10 ppm) and 2.0 in assay [1] (Conc 50 ppm). The FFI in assay [2] (Conc 10 ppm) is recorded as 0; in assay [2] (Conc 50 ppm) it was 1.8.
The like results for `CC(CCO)CCc1ccccc1` (centres unmarked) [Material 962] were, in that order, 2.3, 1.7, 0 and 0.5.
In assay [1] (Conc 50 ppm), `CCOC(=O)OC1C(C)CCC(C)C1C` (centres unmarked) [Material 1005] showed a BI of 2.6. In addition, in assay [2] (Conc 50 ppm), the FFI is recorded as 0.5.
Consider `COC(=O)OC1CC/C=C\CCC1` (centres unmarked) [Material 1139], for which the BI in assay [1] (Conc 10 ppm) was 2.0; in assay [1] (Conc 50 ppm) it was 2.7. The figures for the FFI in assay [2] (Conc 10 ppm) and in assay [2] (Conc 50 ppm) were 0 and 1.0, respectively.
In assay [1] (Conc 50 ppm), `C=C1CCC2OC2(C)CCC2C1CC2(C)C` (centres unmarked) [Material 1148] displayed a BI of 2.3. Moreover, the FFI in assay [2] (Conc 50 ppm) came out at 0.5.
Turning to `CC1(C)C2CCC3(C2)C1C(=O)CCC3(C)C` (centres unmarked) [Material 1149], the BI in assay [1] (Conc 10 ppm) is 1.5; in assay [1] (Conc 50 ppm), 2.3. Further, the FFI is recorded as 0 in assay [2] (Conc 10 ppm) and 0.8 in assay [2] (Conc 50 ppm).
Compound `CCCCCCCCCCCO` [Undecanol] had a BI in assay [1] (Conc 50 ppm) of 2.3. For the same compound, the FFI in assay [2] (Conc 50 ppm) was 0.8.
In the case of `CC(C)CC(=O)O` [isovaleric acid, reference compound], the “BI grade of reference swatch, Ave” value in assay [1] (2 μL 0.08% isovaleric acid, all graders (Table 10)) was 1.0.

Values taken from patent US20160090555A1, “CLEANING AND/OR TREATMENT COMPOSITIONS COMPRISING MALODOR REDUCTION COMPOSITIONS” (The Procter & Gamble Company, priority 2014, published 2016).
